Patent US9000045B2, “CETP activity inhibitors” (Japan Tobacco Inc., priority 1997, dated 2015)

How the values were obtained:
CETP [1] = target: T1, CETP (Homo sapiens, UniProt P11597); test: Ex vivo CETP activity inhibitory effect of plasma from transgenic mice; set-up: from tissue; host or cells: plasma of transgenic mice carrying the human CETP gene; conditions: mouse, po, p.o., 6 hours after administration, transgenic mice with human CETP gene, read-out: CETP activity inhibitory rate in plasma from transgenic mouse
T1 sequence (P11597 18-493): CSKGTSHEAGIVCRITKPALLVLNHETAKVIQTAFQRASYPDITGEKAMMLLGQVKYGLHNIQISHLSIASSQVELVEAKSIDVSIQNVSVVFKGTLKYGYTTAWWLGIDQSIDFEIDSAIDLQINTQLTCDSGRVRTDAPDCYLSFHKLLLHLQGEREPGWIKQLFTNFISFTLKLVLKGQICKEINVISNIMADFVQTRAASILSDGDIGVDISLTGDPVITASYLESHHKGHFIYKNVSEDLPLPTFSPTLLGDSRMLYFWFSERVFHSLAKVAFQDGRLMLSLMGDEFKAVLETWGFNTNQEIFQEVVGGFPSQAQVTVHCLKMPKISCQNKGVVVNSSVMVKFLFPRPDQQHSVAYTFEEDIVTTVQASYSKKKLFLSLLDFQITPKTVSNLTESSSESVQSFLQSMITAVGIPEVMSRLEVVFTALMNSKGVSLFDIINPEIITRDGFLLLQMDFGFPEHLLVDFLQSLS
Procedure: Potassium bromide (KBr) was added to the plasma of healthy subjects (40 ml) to adjust specific gravity to d=1.125 g/ml. Density gradient centrifugation (227,000×g, 4° C., 17 hours) was conducted to obtain a fraction with specific gravity d>1.125 g/ml (HDL3 fraction). The fraction thus obtained was dialyzed against a PBS solution [10 mM Na2HPO4/10 mM NaH2PO4/0.15 M NaCl/1 mM EDTA (pH 7.4)]. Then, tritium-labeled cholesterol (10 nM) (50.3 Ci/mM) was dissolved in 95% ethanol and added gradually to the above HDL3 fraction under stirring. The solution was incubated for 18 hours at 37° C. [Tritium-labeled cholesterol was esterified by this procedure by the action of lecithin:cholesterol acyltransferase (LCAT) present on the surface of HDL3 and taken up into the interior of HDL3 as tritium-labeled cholesterylester ([^3H]CE)]. After incubation, KBr was added and specific gravity was adjusted to d=1.21 g/ml. Density gradient centrifugation (227,000×g, 4° C., 17 hours) was conducted and the fraction with d<1.21 g/ml was harvested. The fraction thus obtained was dialyzed against the above PBS solution to obtain HDL3 that took up [^3H]CE ([^3H]CE-HDL3, specific gravity: 1.125<d<1.21, specific activity: 101,000 dpm/nM), which served as donor lipoprotein.
Physiological saline (specific gravity d=1.006 g/ml) was layered upon the plasma of healthy subjects (100 ml). Density gradient centrifugation (227,000×g, 4° C., 4 hours) was conducted and the fraction with specific gravity d>1.006 g/ml was harvested. KBr was added to the fraction thus obtained to adjust specific gravity to d=1.063 g/ml and density gradient centrifugation (227,000×g, 4° C., 20 hours) was conducted to harvest the fraction with specific gravity […]. The thus-obtained fraction was dialyzed against the above PBS solution to obtain fractions containing IDL and LDL (specific gravity: 1.006<d<1.063), which served as acceptor lipoprotein.
Samples were suspended in a 0.5% methylcellulose solution and administered orally using a plastic probe to transgenic mice having introduced human CETP gene (hereafter referred to as mice; prepared using the method described in Japanese Patent Application No. Hei 8-130660), which had been fasted overnight. Blood was collected before administration, and 6 hours after administration CETP activity in the plasma was determined using the following method.
Donor lipoprotein ([^3H]CE-HDL3, containing 0.21 μg cholesterol) obtained in the above (1), acceptor lipoprotein obtained in the above (2) (containing 21 μg of cholesterol), and 0.9 μl of mice plasma were added to microtubes. A total volume was adjusted to 600 μl/tube with a TBS solution [10 mM Tris/0.15 M NaCl (pH 7.4)]. The microtubes were incubated for 15 hours at 37° C. or 4° C. Then, an ice-cooled TBS solution (400 μl/tube) and a 0.3% dextran sulfate solution (100 μl/tube) containing 0.15 M magnesium chloride were added to the microtubes and mixed well. After allowing the microtubes to stand for 30 minutes at 4° C., centrifugation (8,000 rpm, 4° C., 10 minutes) was carried out and radioactivity of the resulting supernatant (HDL fraction) was determined with a scintillation counter.

CETP [2] = target: T1, CETP; test: In vitro CETP activity inhibitory effect in whole plasma; assay type: biochemical; set-up: Plasma containing [^3H]CE-HDL3 (600,000 dpm/ml) was prepared by adding donor lipoprotein obtained in the above (1) to plasma from healthy subjects; from tissue; host or cells: whole plasma of healthy subjects; conditions: plasma from healthy subjects containing [3H]CE-HDL3, incubated 4 hours at 37° C.; read-out: CETP activity inhibition in whole plasma IC50
Procedure: The fraction thus obtained was dialyzed against a PBS solution [10 mM Na2HPO4/10 mM NaH2PO4/0.15 M NaCl/1 mM EDTA (pH 7.4)]. Then, tritium-labeled cholesterol (10 nM) (50.3 Ci/mM) was dissolved in 95% ethanol and added gradually to the above HDL3 fraction under stirring. The solution was incubated for 18 hours at 37° C. […] After incubation, KBr was added and specific gravity was adjusted to d=1.21 g/ml. […] A sample solution was prepared using a 1:1 solution of N-methylpyrrolidone and polyethyleneglycol 400 as a solvent. […] Based on the inhibition rate (%) of CETP activity, IC50 value of each sample was calculated.

SMILES | inhibition at 100 mg/kg (CETP [1]) | IC50 (CETP [2]) | inhibition at 10 mg/kg (CETP [1]) | inhibition at 30 mg/kg (CETP [1])
CC(C)CCC1(C(=O)Nc2ccccc2SSc2ccccc2NC(=O)C2(CCC(C)C)CCCCC2)CCCCC1 [Example 8] | 25% | 3 µM | – | –
CC(C)CCC1(C(=O)Nc2ccccc2S)CCCCC1 [Example 11, N-(2-mercaptophenyl)-1-isopentylcyclohexanecarboxamide] | 57% | 5 µM | 27% | 45%
CC(C)C1(C(=O)Nc2ccccc2S)CCCCC1 [Example 14] | – | 8 µM | – | 9%
Cc1ccc(S)c(NC(=O)C2(CCC(C)C)CCCCC2)c1 [Example 22] | – | 56 µM | 22% | 44%
Cc1cccc(NC(=O)C2(CCC(C)C)CCCCC2)c1S [Example 23] | – | – | – | 18%
Cc1ccc(NC(=O)C2(CCC(C)C)CCCCC2)c(S)c1 [Example 24] | – | 29 µM | – | 29%
CC(=O)Sc1ccccc1NC(=O)C1(CCC(C)C)CCCCC1 [Example 25, S[2-(1-isopentylcyclohexanecarbonylamino)phenyl]thioacetate] | 52% | 11 µM | 19% | 45%
CC(=O)N[C@H](C(=O)Sc1ccccc1NC(=O)C1(CCC(C)C)CCCCC1)C(C)C [Example 25-45] | – | 13 µM | – | 21%
CC(C)CCC1(C(=O)Nc2ccccc2SC(=O)c2ccc([N+](=O)[O-])cc2)CCCCC1 [Example 25-46] | 35% | 9 µM | – | –
CC(C)CCC1(C(=O)Nc2ccccc2SC(=O)c2ccccc2Cl)CCCCC1 [Example 25-49] | – | 21 µM | – | 16%
CC(=O)OC(C)(C)C(=O)Sc1ccccc1NC(=O)C1(CCC(C)C)CCCCC1 [Example 25-52] | – | 68 µM | 19% | 40%
CC(C)CCC1(C(=O)Nc2ccccc2SC(=O)C2CCN(C)CC2)CCCCC1 [Example 25-53] | – | 7 µM | – | 26%
CC(=O)NC1(C(=O)Sc2ccccc2NC(=O)C2(CCC(C)C)CCCCC2)CCCCC1 [Example 25-56] | – | 7 µM | – | 24%
CSCC[C@H](NC(C)=O)C(=O)Sc1ccccc1NC(=O)C1(CCC(C)C)CCCCC1 [Example 25-57] | – | 7 µM | 18% | 46%
CC(C)CCC1(C(=O)Nc2ccccc2SC(=O)/C=C/c2ccccc2)CCCCC1 [Example 25-59] | – | 8 µM | 20% | 37%
CC(C)CCC1(C(=O)Nc2ccccc2SC(=O)Cc2ccccc2)CCCC1 [Example 25-61] | – | 5 µM | – | 28%
COc1ccccc1C(=O)Sc1ccccc1NC(=O)C1(CCC(C)C)CCCC1 [Example 25-63] | 25% | 21 µM | – | –
CC(=O)Sc1cc(Cl)c(Cl)cc1NC(=O)C1(CCC(C)C)CCCCC1 [Example 25-84] | 17% | 10 µM | – | –
CC(C)CCC1(C(=O)Nc2ccccc2SC(=O)NC(C)(C)C)CCCCC1 [Example 25-97] | 19% | 9 µM | – | –
CC(C)CC1(C(=O)Nc2cc(Cl)c(Cl)cc2SC(=O)C(C)(C)C)CCCCC1 [Example 66-42] | – | 10 µM | – | –

SMILES | inhibition at 100 mg/kg (CETP [1]) | IC50 (CETP [2]) | inhibition at 10 mg/kg (CETP [1]) | inhibition at 30 mg/kg (CETP [1])
CC(C)CCCC1(C(=O)Nc2cc(Cl)c(Cl)cc2SC(=O)C(C)(C)C)CCCCC1 [Example 66-43] | – | 23 µM | – | –
CC(C)(C)CC1(C(=O)Nc2cc(Cl)c(Cl)cc2SC(=O)C(C)(C)C)CCCCC1 [Example 66-46] | – | 35 µM | – | –
CC(C)(C)C(=O)Sc1cc(Cl)c(Cl)cc1NC(=O)C1(CCC2CC2)CCCCC1 [Example 66-48] | – | 11 µM | – | –
CC(C)CC1(C(=O)Nc2cc(Cl)c(Cl)cc2SC(=O)C(C)(C)C)CCCC1 [Example 66-49] | – | 40 µM | – | –
CC(C)(C)C(=O)Sc1cc(Cl)c(Cl)cc1NC(=O)C1(CC2CCCCC2)CCCC1 [Example 66-51] | – | 45 µM | – | –
COC(=O)Sc1cc(Cl)c(Cl)cc1NC(=O)C1(C)CCCCC1 [Example 66-52] | – | 46 µM | – | –
CCNC(=O)Sc1cc(Cl)c(Cl)cc1NC(=O)C1(C)CCCCC1 [Example 66-53] | – | 15 µM | – | –
CC(C)(C)C(=O)Sc1cc(Cl)c(Cl)cc1NC(=O)C1(C2CC2)CCCCC1 [Example 67] | – | 9 µM | – | –
CC(C(=O)Nc1cc(Cl)c(Cl)cc1SC(=O)C(C)(C)C)C1CCCCC1 (centres unmarked) [Example 68] | – | 10 µM | – | –
CCCCCC1(C(=O)Nc2cc(Cl)c(Cl)cc2SC(=O)C(C)(C)C)CCCCC1 [Example 69] | – | 6 µM | – | –
CC(C)(C)C(=O)Sc1cc(Cl)c(Cl)cc1NC(=O)C1(CC2CC2)CCCCC1 [Example 70] | – | 4 µM | – | –
CC(C)(C)C(=O)Sc1cc(Cl)c(Cl)cc1NC(=O)C1(CC2CCCCC2)CCCCC1 [Example 71] | – | 4 µM | – | –
CC(C)CCC1(C(=O)Nc2cc(Cl)c(Cl)cc2SC(=O)C(C)(C)C)CCCCCC1 [Example 72] | – | 74 µM | – | –
CC(C)CCC1(C(=O)Nc2cc(Cl)c(Cl)cc2SC(=O)C(C)(C)C)CCC1 [Example 73] | – | 37 µM | – | –
COc1ccc(SC(=O)C(C)(C)C)c(NC(=O)C2(CCC(C)C)CCCCC2)c1 [Example 78] | – | – | – | 11%
CC(C)CCC1(C(=O)Nc2cc(Cl)c(Cl)cc2SSc2cc(Cl)c(Cl)cc2NC(=O)C2(CCC(C)C)CCCCC2)CCCCC1 [Example 82, bis-[4,5-dichloro-2-(1-isopentylcyclohexane-carbonylamino)phenyl]disulfide] | – | 7 µM | – | –
CC(C)CCC1(C(=O)Nc2cc(Cl)c(Cl)cc2SSc2cc(Cl)c(Cl)cc2NC(=O)C2(CCC(C)C)CCCC2)CCCC1 [Example 82-1] | – | 5 µM | – | –
CC(C)CCC1(C(=O)Nc2ccccc2SSCC2CCCO2)CCCCC1 (centres unmarked) [Example 83, 2-tetrahydrofurylmethyl 2-(1-isopentylcyclohexane-carbonylamino)phenyl disulfide] | – | 5 µM | – | –
CC(C)(C)C(=O)Nc1ccccc1SSc1ccccc1 [Example 84, phenyl 2-pivaloylaminophenyl disulfide] | – | 158 µM | – | –
